The results in this text go back to US5321024A, “Antiviral pharmaceutical composition for treating lymphocytes” (Godecke Aktiengesellschaft, priority 1991, dated 1994).

For experiment [1], the system named is HIV viruses (cell line C8166). As to the kind of experiment: in vitro anti-HIV protection assay in cell line C8166. The format is cell-based. An excerpt: (§1) This is usually substantially more difficult to protect so, for example, in the case of the use of 3-azide-3'-deoxythymidine (AZT), a 100-fold higher dosage is needed than in the use of the compound of the present invention.
(§2) The above assay is described in the Journal of the National Cancer Institute, Vol. 81, No. 8, Apr. 19, 1989.

The target of the next experiment is reverse transcriptase (Human immunodeficiency virus type 1 group M subtype B, UniProt P04585). Nature of the experiment: inhibition of reverse transcriptase. The format is biochemical. Particulars: in vitro.
From the text: as §1

Another experiment deals with HIV viruses. As to the kind of experiment: CPE cell line assay against p24 antigen. The format is cell-based. The settings on record: Human immunodeficiency virus 1, in vitro.
From the text: as §1, §2

Experiment [2] concerns HIV viruses (T-lymphocytes). As to the kind of experiment: protection of T-lymphocytes against the cytopathic effect of HIV viruses. It is filed as cell-based. In general terms: Damage to the host cells serves as the signal in cytopathic effect assays.
The subject of experiment [3] is HIV viruses (CEM-IW cell line). Nature of the experiment: in vitro anti-HIV assay in CEM-IW cell line. It is filed as cell-based. Particulars: Human immunodeficiency virus 1.
From the text: as §1, §2

As to `Cc1cn([C@H]2C[C@H](N=[N+]=[N-])[C@@H](CO)O2)c(=O)[nH]c1=O` [AZT, 3-azide-3'-deoxythymidine, reference compound], the “dosage needed relative to the compound of the present invention” value in experiment [1] (cell line C8166, higher dosage needed) is on record as 100 fold.
By IC50 is commonly meant the midpoint of a concentration-inhibition curve. What is called EC50 is the concentration needed to bring the measured effect to its halfway point. High values mean a less potent agent, low ones a more potent agent. Turning to `O=S1(c2ccccc2)=NC(=S)Nc2ccccc21` (stereo not drawn) [Example 1, 3,4-Dihydro-1-phenyl-3-thio-1,2,4-benzothiadiazine 1-oxide], half-maximal inhibition on reverse transcriptase (IC50) was put at 2000 nM. In addition, in experiment [1] (cell line C8166, usually substantially more difficult to protect), the “values found for the cell line C8166 compared with the other cell line values” is reported as “comparable values”. Besides, the EC50 in the experiment with HIV viruses was roughly 1650 nM; in experiment [3] it was roughly 2000 nM. Moreover, the “protection of T-lymphocytes against the cytopathic effect of HIV viruses” value in experiment [2] is on record as “complete protection”.
